Source: patent US20110144079A1, “ANTIMICROBIAL SYSTEM” (priority 2008, published 2011)
Like-named read-outs stand apart in the source and are kept apart here.

Key:
[1] = test system: K. aerogenes NCTC 7427; test: Broth microdilution MIC/MBC; assay type: cell-based; settings: for MIC: K. aerogenes NCTC 7427, 24 h at 37° C.
Procedure: (§1) Broth microdilution tests were performed according to NCCLS guidelines. Serial two-fold dilutions of each imidazolium salt (from an original working solution which had been 0.22 μm sterile filtered) in Mueller-Hinton Broth (MHB) (100 μl) were prepared in 96-well micro-titre plates over the range 0.0000625-1% w/v. The inoculum to be tested was prepared by adjusting the turbidity of an actively overnight growing broth culture in MHB to an optical density at 550 nm equivalent to 1×10^8 CFU/ml. The suspension was further diluted to provide a final inoculum density of 2×10^5 CFU/ml in MHB as verified by total viable count. The inoculum to be tested (100 μl, 2×10^5 CFU ml^−1) was added to each well of the microdilution trays which were incubated aerobically for 24 h at 37° C. Positive and negative growth controls were included in every assay (6 replicates). After determining the MICs, minimum bactericidal concentrations (MBCs) were determined by spreading 20 μl of suspension from wells showing no growth onto MHA plates, which were then incubated for 24 h and examined for 99.9% killing.

[2] = test system: S. epidermidis ATCC 12228; test: Broth microdilution MIC/MBC; assay type: cell-based; settings: for MIC: S. epidermidis ATCC 12228, 24 h at 37° C.
Procedure: as §1

[3] = test system: P. aeruginosa PA01; test: Broth microdilution MIC/MBC; assay type: cell-based; settings: for MIC: P. aeruginosa PA01, 24 h at 37° C., read-out: MIC
Procedure: as §1

[4] = test system: B. cenocepacia J2315; test: Broth microdilution MIC/MBC; assay type: cell-based
Procedure: as §1

[5] = test system: E. coli NCTC 8196; test: Broth microdilution MIC/MBC; assay type: cell-based; settings: for MIC: E. coli NCTC 8196, 24 h at 37° C.
Procedure: as §1

[6] = test system: E-MRSA 15; test: Broth microdilution MIC/MBC; assay type: cell-based
Procedure: as §1

[7] = test system: C. tropicalis NCTC 7393; test: Broth microdilution MIC/MBC; assay type: cell-based; settings: for MIC: C. tropicalis NCTC 7393, 24 h at 37° C.
Procedure: as §1

[8] = test system: S. aureus ATCC 29213; test: Broth microdilution MIC/MBC; assay type: cell-based; settings: for MIC: S. aureus ATCC 29213, 24 h at 37° C.
Procedure: as §1

[9] = test system: S. epidermidis ATCC 35984; test: Broth microdilution MIC/MBC; assay type: cell-based; settings: for MIC: S. epidermidis ATCC 35984, 24 h at 37° C.
Procedure: as §1

[10] = test system: P. mirabilis NCTC 12442; test: Broth microdilution MIC/MBC; assay type: cell-based; settings: for MIC: P. mirabilis NCTC 12442, 24 h at 37° C.
Procedure: as §1

[11] = test system: MRSA; test: Broth microdilution MIC/MBC; assay type: cell-based, methicillin-resistant S. aureus; settings: for MIC: 24 h at 37° C.
Procedure: as §1

[12] = test system: B. cereus; test: Broth microdilution MIC/MBC; assay type: cell-based; settings: 24 h at 37° C.
Procedure: as §1

[13] = test system: MRSA; test: Zone of inhibition on MRSA-seeded agar culture plates; assay type: cell-based, methicillin-resistant S. aureus; settings: 40 μL of ionic liquid applied to MRSA-seeded agar culture plates
Text: As used herein, CyMIMCI, refers to 1-alkyl-3-methyl-imidazolium chloride ionic liquids, wherein the alkyl group is a straight chain alkyl group having y carbon atoms.

[14] = Pseudomonas aeruginosa, PA01, 24 h

| Compound | MIC [1] [µM] | MIC [2] [µM] | MIC [5] [µM] | MIC [7] [µM] | MIC [8] [µM] | MIC [9] [µM] | MIC [10] [µM] | MIC [12] [µM] | also measured |
| --- | --- | --- | --- | --- | --- | --- | --- | --- | --- |
| CCCCCCn1cc[n+](C)c1.[Cl-] [1-alkyl-3-methylimidazolium chlorides 6] | >1644 | >1644 | >1644 | >1644 | >1644 | >1644 | >1644 |  | MBC ([1]; K. aerogenes NCTC 7427, 99.9% killing): >1644 µM; MBC ([2]; S. epidermidis ATCC 12228, 99.9% killing): >1644 µM; MBC ([3]; P. aeruginosa PA01, 99.9% killing): >1644 µM; MIC [3]: >1644 µM; MBC ([4]; B. cenocepacia J2315, 99.9% killing): >1644 µM; MIC ([4]; B. cenocepacia J2315, 24 h at 37° C.): >1644 µM; MBC ([5]; E. coli NCTC 8196, 99.9% killing): >1644 µM; MBC ([6]; E-MRSA 15, 99.9% killing): >1644 µM; MIC ([6]; E-MRSA 15, 24 h at 37° C.): >1644 µM; MBC ([7]; C. tropicalis NCTC 7393, 99.9% killing): >1644 µM; MBC ([8]; S. aureus ATCC 29213, 99.9% killing): >1644 µM; MBC ([9]; S. epidermidis ATCC 35984, 99.9% killing): >1644 µM; MBC ([10]; P. mirabilis NCTC 12442, 99.9% killing): >1644 µM; MBC ([11]; 99.9% killing): >1644 µM; MIC [11]: >1644 µM |
| CCCCCCCC[n+]1ccn(C)c1.[Br][Ag-][Br] [1-alkyl-3-methylimidazolium-AgBr2 8] | 168.5 | 68.35 | 136.69 | 168.5 | 136.69 | 68.35 | 168.5 | 168.5 |  |
| CCCCCCCCCCn1cc[n+](C)c1.[Br][Ag-][Br] [1-alkyl-3-methylimidazolium-AgBr2 10] | 79.78 | 32.68 | 32.68 | 79.78 | 32.68 | 32.68 | 79.78 | 79.78 |  |
| CCCCCCCCCCCC[n+]1ccn(C)c1.[Br][Ag-][Br] [1-alkyl-3-methylimidazolium-AgBr2 12] | 34.40 | 31.32 | 31.32 | 75.85 | 15.66 | 15.66 | 34.40 | 68.81 |  |
| CCCCCCCCCCCCCC[n+]1ccn(C)c1.[Br][Ag-][Br] [1-alkyl-3-methylimidazolium-AgBr2 14] | 18.05 | 15.03 | 15.03 | 36.1 | 3.76 | 15.03 | 18.05 | 72.2 |  |
| CCCCCCCCCCCCCCCCn1cc[n+](C)c1.[Br][Ag-][Br] [1-alkyl-3-methylimidazolium-AgBr2 16] | 34.44 | 3.61 | 28.91 | 34.44 | 7.23 | 3.61 | 34.44 | 68.89 |  |
| CCCCCCCCCCCCCCCCCC[n+]1ccn(C)c1.[Br][Ag-][Br] [1-alkyl-3-methylimidazolium-AgBr2 18] | 65.87 | 13.91 | 27.83 | 65.87 | 27.83 | 13.91 | 65.87 | 65.87 |  |
| CCCCCCCC[n+]1ccn(C)c1.CCCCCCCC[n+]1ccn(C)c1.[Cl][Cu-2]([Cl])([Cl])[Cl] [(1-alkyl-3-methylimidazolium)2CuCl4 8] | 941.6 | 470 | 470 | 941.6 | 470 | 470 | 941.6 | 1883.21 |  |
| CCCCCCCCCCCCCCCCn1cc[n+](C)c1.[Cl-] [C16MIMCl] |  |  |  |  |  |  |  |  | Zone Of Inhibition Radius [13]: 6 mm |
| CCCCCCCCCCCCCCCCCCn1cc[n+](C)c1.[Cl-] [C18MIMCl] |  |  |  |  |  |  |  |  | Zone Of Inhibition Radius [13]: 10 mm |
| CCCCCCCCCCCCCC[n+]1ccn(C)c1C [IL1, 1,2-dimethyl-3-tetradecylimidazolium bromide, reference compound] |  |  |  |  |  |  |  |  | MIC ([2]; Staphylococcus epidermidis, ATCC12228): 213 µM; MIC [3, 14]: 743 µM; MIC ([12]; Bacillus cereus): 372 µM; MIC ([5]; Escherichia coli, NCTC8196): 46.5 µM; MIC ([10]; Proteus mirabilis, NCTC12442): 372 µM; MIC ([11]; Staphylococcus aureus): 186 µM |
| CCCCCCCCCCCCCC[N+](C)(C)CCO [IL2, N,N-dimethyl-N-(2-hydroxyethyl)-N-tetradecylammonium bromide, reference compound] |  |  |  |  |  |  |  |  | MIC [3, 14]: 427 µM; MIC ([12]; Bacillus cereus): 13.3 µM; MIC ([5]; Escherichia coli, NCTC8196): 53.4 µM; MIC ([10]; Proteus mirabilis, NCTC12442): 427 µM |

More lines, main results first:

| MIC [1] [µM] | MIC [2] [µM] | MIC [5] [µM] | MIC [7] [µM] | MIC [8] [µM] | MIC [9] [µM] | MIC [10] [µM] | MIC [12] [µM] | Compound | also measured |
| --- | --- | --- | --- | --- | --- | --- | --- | --- | --- |
| 218.3 | 101.74 | 101.74 | 218.3 | 101.74 | 101.74 | 218.3 | 1746.4 | CCCCCCCCCC[n+]1ccn(C)c1.CCCCCCCCCC[n+]1ccn(C)c1.[Cl][Cu-2]([Cl])([Cl])[Cl] [(1-alkyl-3-methylimidazolium)2CuCl4 10] |  |
| 50.88 | 50.88 | 50.88 | 50.88 | 50.88 | 50.88 | 50.88 | 407 | CCCCCCCCCCCCn1cc[n+](C)c1.CCCCCCCCCCCCn1cc[n+](C)c1.[Cl][Cu-2]([Cl])([Cl])[Cl] [(1-alkyl-3-methylimidazolium)2CuCl4 12] |  |
| 40.02 | 20.01 | 40.02 | 20.01 | 40.02 | 40.02 | 20.01 | 80.06 | CCCCCCCCCCCCCCn1cc[n+](C)c1.CCCCCCCCCCCCCCn1cc[n+](C)c1.[Cl][Cu-2]([Cl])([Cl])[Cl] [(1-alkyl-3-methylimidazolium)2CuCl4 14] |  |
| 44.81 | 44.81 | 44.81 | 44.81 | 22.41 | 22.41 | 44.81 | 89.63 | CCCCCCCCCCCCCCCCn1cc[n+](C)c1.CCCCCCCCCCCCCCCCn1cc[n+](C)c1.[Cl][Cu-2]([Cl])([Cl])[Cl] [(1-alkyl-3-methylimidazolium)2CuCl4 16] |  |
| 338.29 | 131.98 | 131.98 | 84.57 | 131.98 | 131.98 | 338.29 | 169.15 | CCCCCCCCCCCCCCCCCCn1cc[n+](C)c1.CCCCCCCCCCCCCCCCCCn1cc[n+](C)c1.[Cl][Cu-2]([Cl])([Cl])[Cl] [(1-alkyl-3-methylimidazolium)2CuCl4 18] |  |
